Test results as given in patent US7151109B2, “Pyrazolo[1,5-a]pyridine derivatives and their use as neurotransmitter modulators” (Pharmacia & Upjohn Company LLC, priority 2002, dated 2006).

melting point [°C]	Compound
111.9 to 114.9	COc1ccc(-c2cccc3c(C(C)C)c(C)nn23)c(Cl)c1 [Example 40, 7-(2-Chloro-4-methoxyphenyl)-3-isopropyl-2-methylpyrazolo[1,5-a]pyridine]
45.8 to 52.8	CCc1nn2c(-c3ccc(OC)cc3Cl)cccc2c1N(CCF)CCOC [Example 25, 7-(2-Chloro-4-methoxyphenyl)-2-ethyl-N-(2-fluoroethyl)-N-(2-methoxyethyl)pyrazolo[1,5-a]pyridin-3-amine]
98.5 to 100.3	CCCN(CCC)c1c(CC)nn2c(-c3cnc(N(C)C)cc3C)cccc12 [Example 18, 7-[6-(Dimethylamino)-4-methylpyridin-3-yl]-2-ethyl-N,N-dipropylpyrazolo[1,5-a]pyridin-3-amine]
132.8 to 134.3	CCCN(CCC)c1c(CC)nn2c(-c3ccc(N(C)C)cc3Cl)cccc12 [Example 16, 7-[2-Chloro-4-(dimethylamino)phenyl]-2-ethyl-N,N-dipropylpyrazolo[1,5-a]pyridin-3-amine]

Second part, the compound before the results:

Compound	melting point [°C]
CCCN(CCC)c1c(CC)nn2c(-c3ccc(Cl)cc3Cl)cccc12.O=C(O)/C=C\C(=O)O [Example 11, 7-(2,4-Dichlorophenyl)-2-ethyl-N,N-dipropylpyrazolo[1,5-a]pyridin-3-amine maleic acid salt]	106 to 112
CCCN(CCC)c1c(CC)nn2c(-c3ccc(N(C)C)cc3C(F)(F)F)cccc12 [Example 14, 7-[4-(Dimethylamino)-2-(trifluoromethyl)phenyl]-2-ethyl-N,N-dipropylpyrazolo[1,5-a]pyridin-3-amine]	69.1 to 79.8
CCCN(CCC)c1c(CC)nn2c(-c3ccc(OC)cc3C)cccc12 [Example 12, 2-Ethyl-7-(4-methoxy-2-methylphenyl)-N,N-dipropylpyrazolo[1,5-a]pyridin-3-amine]	76 to 79
CCCN(CCC)c1c(CC)nn2c(-c3ccc(OC)cc3Cl)cccc12 [Example 13, 7-(2-Chloro-4-methoxyphenyl)-2-ethyl-N,N-dipropylpyrazolo[1,5-a]pyridin-3-amine]	73.6 to 76
